The test system of test [1] is regional cardiac ischemia/reperfusion in rat heart. Kind of test: 20 minutes regional cardiac ischemia and 3 hours reperfusion in hyponatremic rats: myocardial infarction, risk size, hemodynamics. The test is classed as in vivo, rat (male Sprague-Dawley). Conditions: 20 min regional ischemia, 3 h reperfusion on day 14, compared with saline-infused or vehicle-treated rats, TTC staining. An excerpt:
The condition of hypotonic hyponatremia was created by infusing a selective vasopressin V2 agonist, DDAVP, into rats using an osmotic minipump implanted subcutaneously for 14 days in animals with access to only liquid food (a model of SIADH: syndrome of inappropriate antidiuretic hormone secretion). Control rats had the same surgical implantation of an osmotic minipump filled with saline. Rats either received a daily oral administration of tolvaptan or vehicle in an escalating dosing regime. At the end of the 14-day period, rats were subjected to 20 minutes of regional cardiac ischemia and 3 hours of reperfusion, and myocardial infarction was determined. At the final day of the study (day 14), rats were anesthetized, and the chest was open. Hearts were subjected to 20 minutes of regional ischemia followed by 3 hours of reperfusion. On day 14, rats were anesthetized with pentobarbital (30 mg/kg) by an intraperitoneal injection. Once anesthesia was induced, a tracheotomy was performed, and the trachea was cannulated and the animal was attached to a respirator. An oxygen supplement was fed into the tracheal line to maintain the pO2 above 100 mmHg. A cannula was inserted into the right carotid artery to monitor blood pressure and heart rate. The heart was exposed through a left thoracotomy in the fourth intercostal space, and the pericardium opened. A snare was placed around a major branch of the left coronary artery of the animal using a 5-0 suture. The suture ends were passed through a small segment of pliable polyethylene tubing to form a snare. Regional ischemia was induced by pulling the silk tightly through the tubing and clamping the tube with a hemostat. Experiments involved 20 minutes of ischemia and 3 hr reperfusion, which was achieved by releasing the snare. Myocardial ischemia and reperfusion were confirmed by the observation of regional cyanosis and hyperemia, respectively. […] Infarct size was determined by planimetry and expressed as a percentage of risk area infarcted. Data were expressed as the Mean ±SD (standard deviation). […]

Test [2] relates to rats with hypotonic hyponatremia (model of SIADH). Kind of test: DDAVP-induced hypotonic hyponatremia in rats (model of SIADH): plasma sodium and osmolarity. Type of test: in vivo, rat (male Sprague-Dawley). Conditions: day 14, end of experiment; DDAVP infused 1 ng/h s.c. for 14 days, liquid diet; Mean ±SD.
Source text: The condition of hypotonic hyponatremia was created by infusing a selective vasopressin V2 agonist, DDAVP, into rats using an osmotic minipump implanted subcutaneously for 14 days in animals with access to only liquid food (a model of SIADH: syndrome of inappropriate antidiuretic hormone secretion). […] Rats either received a daily oral administration of tolvaptan or vehicle in an escalating dosing regime.
Tolvaptan was supplied as a spray-dried formulation, which is a mixture of tolvaptan (free form) and hydroxypropylcellulose (HPC-SL) at a ratio of 2:1. Therefore, the amount of tolvaptan (spray-dried form) was 1.5 times that of tolvaptan (free form). Tolvaptan was suspended in 1% hydroxypropylmethylcellulose solution.
The V2 agonist DDAVP ([deamino-Cys1, D-Arg8]-vasopressin was dissolved in saline (2 μg/mL).
Male Sprague-Dawley rats weighing 150-175 grams were used. Rats had access to feed and tap water. From day −3 (see the timeline in FIG. 1), rats were fed with a customized liquid food (RD-LD89 All-Purpose Liquid Diet Premix, Research Diets, Inc, New Brunswick, N.J.) and no additional food or water was provided. The liquid diet was mixed with water according to manufacturer's instructions.
Rats were acclimated for 3 days to liquid food before the study. Hyponatremia was induced by continuous subcutaneous infusion of 1 ng/h of DDAVP per animal using osmotic minipumps (infusion rate: 0.5 μL/h, ALZET model 2002, DURECT Corporation, Cupertino, Calif.) for 14 days (see FIG. 1). On day 0 when the osmotic minipump was implanted, rats were anesthetized by an intraperitoneal injection of a mixture of ketamine (40 mg/kg) and xylazine (5 mg/kg). The following procedure of implanting minipumps was performed using aseptic techniques. An area 4 cm long and 3 cm wide on the back of the animal (slightly posterior to the scapulae) was shaved and cleaned. A 1 cm cross mid-scapular incision was made. A hemostat was inserted into the incision and a pocket for the pump was created by opening and closing the jaw of the hemostat to spread the subcutaneous tissue. The pump (length 3 cm, diameter 0.7 cm and 0.4 grams) was inserted into the pocket, delivery portal first. The wound was closed with wound clips, and animals were placed on a heating pad for recovery, and eventually returned back to the cage.
On day 2 after the surgery, animals were switched to a nutritionally complete liquid food diet containing 14% dextrose (see FIG. 1). No additional water or solid food was provided.
Starting from day 4, an escalating dosing regime of tolvaptan or vehicle was used from 0.25 mg/kg to 10 mg/kg daily.

For `Cc1ccccc1C(=O)Nc1ccc(C(=O)N2CCCC(O)c3cc(Cl)ccc32)c(C)c1` (stereo not shown) [Tolvaptan, 7-chloro-5-hydroxy-1-[2-methyl-4-(2-methylbenzoyl-amino)benzoyl]-2,3,4,5-tetrahydro-1H-benzazepine], the “myocardial infarct size (percentage of risk area infarcted)” value in test [1] was “reduced the infarct size in DDAVP-infused rats to a level similar to that in saline-infused rats”. Further, the “myocardial infarct size (percentage of risk area infarcted)” value in test [1] (listed as tolvaptan) is on record as “much smaller degree as compared with that in vehicle-treated rats”. In test [2], the plasma osmolarity is given as 304±8 mOsm/kg and the plasma sodium came out at 140 ± 3 mmol/L.
Take `NC(=O)CC[C@@H]1NC(=O)[C@H](Cc2ccccc2)NC(=O)[C@H](Cc2ccc(O)cc2)NC(=O)CCSSC[C@@H](C(=O)N2CCC[C@H]2C(=O)N[C@H](CCCN=C(N)N)C(=O)NCC(N)=O)NC(=O)[C@H](CC(N)=O)NC1=O` [DDAVP, [deamino-Cys1, D-Arg8]-vasopressin]: the “myocardial infarct size (percentage of risk area infarcted)” value in test [1] was “more than double”. In test [2], this compound registered a plasma osmolarity of 264±6 mOsm/kg and a plasma sodium of 114 ± 7 mmol/L.
